The nature of series [1]: Metabolic stability in mouse liver microsomes assessed as half life at 1 uM measured after 30 mins by HPLC-MS/MS analysis. The class given is ADME, Microsome. Background: Liver microsomes are a subcellular fraction often used to study metabolism.
Another series relates to Pseudomonas aeruginosa. The series is described as follows: Antivirulence activity against Pseudomonas aeruginosa PA14 assessed as inhibition of pyocyanin biosynthesis incubated for 16 hrs under agitation by photometric analysis. The class given is functional, organism-based. The settings on record: PA14, 16 h.
The target of series [2] is T1, Transcriptional regulator MvfR (Pseudomonas aeruginosa PA14, UniProt A0A072ZLE6).
T1 sequence (A0A072ZLE6 whole entry): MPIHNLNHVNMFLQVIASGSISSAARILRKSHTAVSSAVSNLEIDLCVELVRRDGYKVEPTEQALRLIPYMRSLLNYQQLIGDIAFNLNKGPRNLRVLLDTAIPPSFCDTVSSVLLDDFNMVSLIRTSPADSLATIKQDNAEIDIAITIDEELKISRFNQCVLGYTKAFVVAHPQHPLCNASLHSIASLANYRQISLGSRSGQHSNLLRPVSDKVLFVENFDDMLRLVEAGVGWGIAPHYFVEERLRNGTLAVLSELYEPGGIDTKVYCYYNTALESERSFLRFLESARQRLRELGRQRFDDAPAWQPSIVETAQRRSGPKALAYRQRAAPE
Briefly: Inverse agonist activity at Pseudomonas aeruginosa PqsR extracted from Escherichia coli Dh5alpha co-expressing lacZ incubated with test compound in presence of pseudomonas quinolone signal (PQS) by ONPG/heterologous reporter gene assay. Background: Reporter assays use an easily measured gene product as a stand-in for the process of interest.

A short description of series [3]: Kinetic aqueous solubility of the compound in PBS buffer incubated for 5 mins by turbidimetric aqueous solubility assay. The class given is physicochemical. The conditions noted are these: read-out: Kinetic_solubility.
The nature of series [4]: Lipophilicity, log D of the compound. The conditions noted are these: octanol/water. The class given is physicochemical.

The structures appear in SMILES notation. In brackets after ≈: the same amount, converted by molar mass.

Broadly, the half-life is the time needed for the level to fall by half in the phase considered. As usually defined, the IC50 is the concentration that gives 50% inhibition. Consider `CN(C)c1ccc(-c2ncc(CNc3ccnc(C(F)(F)F)c3)s2)cc1`, for which the half-life at 1 µM in series [1] turned out to be 45 min. The values for the IC50 (with Pseudomonas aeruginosa; in series [2]) were over 5000 nM and 728 nM, respectively. In series [3], the solubility kinetic at 5 min amounted to 13 µM (≈ 4.92 µg/mL).
As usually defined, the logD is lipophilicity at a set pH, counting ionised and neutral species. Read a low logD as lower lipophilicity. In the case of `FC(F)(F)c1cc(NCc2cc(-c3ccc(Oc4ccccc4)cc3)n[nH]2)ccn1`, the half-life at 1 µM in series [1] was determined as 23 min. In addition, the values for the IC50 (in the series with Pseudomonas aeruginosa; in series [2]) were 524 nM and 117 nM, respectively. In series [4], this compound gave a pH-dependent lipophilicity (logD) of 4.35. Besides, the solubility kinetic at 5 min in series [3] worked out at 15 µM (≈ 6.16 µg/mL).
`FC(F)(F)c1cc(NCc2ncsc2-c2ccc(Oc3ccccc3)cc2)ccn1`: the IC50 (in the series on Pseudomonas aeruginosa; in series [2]) was over 5 nM each time.
As to `FC(F)(F)c1cc(NCc2cnc(-c3ccc(Cl)cc3)s2)ccn1`, the half-life at 1 µM in series [1] stood at 122 min. Further, the results for the IC50 (in the series on Pseudomonas aeruginosa; in series [2]) were 591 nM and 67 nM, respectively. Besides, in series [4], the logD was determined as 4.28. Moreover, the solubility kinetic at 5 min in series [3] was determined as 36 µM (≈ 13.3 µg/mL).
On to `FC(F)(F)c1cc(NCc2cnc(-c3ccc(Cl)s3)s2)ccn1`, for which the half-life at 1 µM in series [1] is 2 min. Further, the 50% inhibitory concentration (IC50) was over 5000 nM in the series on Pseudomonas aeruginosa and 86 nM in series [2]. Further, the solubility kinetic at 5 min in series [3] is 43 µM (≈ 16.2 µg/mL).
Consider `CC(C)Oc1ccc(-c2ncc(CNc3ccnc(C(F)(F)F)c3)s2)cc1`, for which the half-life at 1 µM in series [1] was 29 min. Further, the IC50 in the series with Pseudomonas aeruginosa amounted to 118 nM; in series [2], 18 nM. This compound gave a logD in series [4] of 4.01. In addition, the solubility kinetic at 5 min in series [3] was determined as 18 µM (≈ 7.08 µg/mL).
Consider `FC(F)(F)c1cc(NCc2nc(-c3ccc(Oc4ccccc4)cc3)cs2)ccn1`, for which the half-life at 1 µM in series [1] was 13 min. Besides, the IC50 is over 5000 nM with Pseudomonas aeruginosa and 712 nM in series [2]. The solubility kinetic at 5 min in series [3] came out at 45 µM (≈ 19.2 µg/mL).
`CC(C)Oc1ccc(-c2ncc(CNc3cc(C#N)nc(C(F)(F)F)c3)s2)cc1`: in series [1], the half-life at 1 µM amounted to 32 min. Further, the results for the IC50 (in the series on Pseudomonas aeruginosa; in series [2]) were 226 nM and 84 nM, respectively. The compound also came in with a logD in series [4] of 5.12. The solubility kinetic at 5 min in series [3] was 6 µM (≈ 2.51 µg/mL).
Regarding `FC(F)(F)c1cc(NCc2cnc(-c3ccc(C4CC4)cc3)s2)ccn1`, the half-life at 1 µM in series [1] amounted to 14 min. The IC50 with Pseudomonas aeruginosa is 179 nM; in series [2], 28 nM. The compound also yielded a logD in series [4] of 4.19. In series [3], the solubility kinetic at 5 min was 7 µM (≈ 2.63 µg/mL).
With `FC(F)(F)c1cc(NCc2cnc(-c3ccc(Cl)nc3)s2)ccn1`, the half-life at 1 µM in series [1] was found to be 49 min. The IC50 was over 5 nM in the series with Pseudomonas aeruginosa and 221 nM in series [2]. In addition, the solubility kinetic at 5 min in series [3] was 200 µM (≈ 74.2 µg/mL).
For the compound `CC(C)Oc1ccc(-c2ncc(CNc3ccnc(Cl)c3)s2)cc1`, the half-life at 1 µM in series [1] stood at 22 min. For the same compound, the values for the IC50 (in the series on Pseudomonas aeruginosa; in series [2]) were 302 nM and 45 nM, respectively. For the same compound, the logD in series [4] is 5.09. Moreover, the solubility kinetic at 5 min in series [3] worked out at 22 µM (≈ 7.92 µg/mL).
As for `FC(F)(F)c1cc(NCc2cnc(-c3ccc(Oc4ccccc4)cc3)s2)ccn1`, in series [1], the half-life at 1 µM came to 24 min. Besides, the IC50 with Pseudomonas aeruginosa is 274 nM; in series [2], 17 nM. The compound also returned a logD in series [4] of 3.29. In addition, the solubility kinetic at 5 min in series [3] was determined as 6 µM (≈ 2.56 µg/mL).
With `FC(F)(F)c1cc(OCc2cnc(-c3ccc(Oc4ccccc4)cc3)s2)ccn1`, the IC50 with Pseudomonas aeruginosa is over 5000 nM. Further, the log distribution coefficient (logD) in series [4] is 3.87.
Take `FC(F)(F)c1cc(NCc2nnc(-c3ccc(Oc4ccccc4)cc3)[nH]2)ccn1`: the half-life at 1 µM in series [1] worked out at 23 min. Besides, the IC50 with Pseudomonas aeruginosa came to 696 nM; in series [2] it was 93 nM. The same compound came in with a logD in series [4] of 3.96. In addition, the solubility kinetic at 5 min in series [3] was 48 µM (≈ 19.7 µg/mL).
For `COc1ccc(-c2ncc(CNc3ccnc(C(F)(F)F)c3)s2)cc1C` the same measures were 1 min, 576 nM, 58 nM, 4.02 and 45 µM (≈ 17.1 µg/mL).
For `FC(F)(F)c1cc(NCc2ccc(-c3ccc(Oc4ccccc4)cc3)o2)ccn1`, the IC50 in the series with Pseudomonas aeruginosa is over 5000 nM. In series [3], the solubility kinetic at 5 min is 63 µM (≈ 25.9 µg/mL).
On to `FC(F)(F)c1cc(NCc2csc(-c3ccc(Oc4ccccc4)cc3)n2)ccn1`, for which the half-life at 1 µM in series [1] is 18 min. Also, the IC50 in the series on Pseudomonas aeruginosa was 1400 nM; in series [2], 53 nM. The compound further displayed a logD in series [4] of 5.04. The solubility kinetic at 5 min in series [3] turned out to be 18 µM (≈ 7.69 µg/mL).
For `CC(C)Oc1ccc(-c2ncc(CNc3cc(C#N)nc(C(F)(F)F)c3)s2)cc1Cl` the same measures were 58 min, 114 nM, 19 nM, 5.01 and 25 µM (≈ 11.3 µg/mL).
Turning to `Clc1cc(NCc2cnc(-c3ccc(Oc4ccccc4)cc3)s2)ccn1`, the half-life at 1 µM in series [1] is 55 min. Further, the half-maximal inhibitory concentration (IC50) with Pseudomonas aeruginosa was 718 nM; in series [2], 9 nM. In series [4], the logD came to 4.16. For the same compound, the solubility kinetic at 5 min in series [3] is 2 µM (≈ 0.788 µg/mL).
In the case of `CC(C)Nc1ccc(-c2ncc(CNc3ccnc(C(F)(F)F)c3)s2)cc1`, in series [1], the half-life at 1 µM was 7 min. The IC50 was 500 nM in the series on Pseudomonas aeruginosa and 430 nM in series [2]. Moreover, the solubility kinetic at 5 min in series [3] turned out to be 39 µM (≈ 15.3 µg/mL).
In the case of `CC(C)Oc1ccc(-c2ncc(CNc3cc(Cl)nc(C(F)(F)F)c3)s2)cc1`, the half-life at 1 µM in series [1] amounted to 15 min. The IC50 stood at 87 nM in the series on Pseudomonas aeruginosa and 8 nM in series [2]. For the same compound, the logD in series [4] was determined as 5.4. In series [3], the solubility kinetic at 5 min stood at 35 µM (≈ 15 µg/mL).
For `CC(C)Oc1ccc(-c2ncc(CNc3cc(Cl)nc(C(F)(F)F)c3)s2)cc1Cl`, in that order: 28 min, 109 nM, 10 nM, 5.21 and 7 µM (≈ 3.24 µg/mL).
For `FC(F)(F)c1cc(NCc2cc(-c3ccc(Oc4ccccc4)cc3)no2)ccn1`, in that order: 36 min, 338 nM, 30 nM, 5.04 and 8 µM (≈ 3.29 µg/mL).
Consider `COc1c(C)cc(-c2ncc(CNc3ccnc(C(F)(F)F)c3)s2)cc1C`, for which the IC50 (with Pseudomonas aeruginosa; in series [2]) was over 5 nM in each case.
`COc1ccc(-c2ncc(CNc3ccnc(C(F)(F)F)c3)s2)cc1Cl`: the half-life at 1 µM in series [1] turned out to be 1 min. In addition, the IC50 in the series with Pseudomonas aeruginosa amounted to 215 nM; in series [2], 40 nM. Further, the logD in series [4] came to 4.84. In addition, in series [3], the solubility kinetic at 5 min was determined as 25 µM (≈ 10 µg/mL).
For `FC(F)(F)c1cc(NCc2nnc(-c3ccc(Oc4ccccc4)cc3)o2)ccn1` the same measures were 23 min, 406 nM, 23 nM, 4.12 and 46 µM (≈ 19 µg/mL).
For `FC(F)(F)c1cc(NCc2ncc(-c3ccc(Oc4ccccc4)cc3)s2)ccn1`, in that order: 10 min, 515 nM, 51 nM, 5.54 and 26 µM (≈ 11.1 µg/mL).
For `N#Cc1cc(NCc2cnc(-c3ccc(Oc4ccccc4)cc3)s2)ccn1`, in that order: 39 min, 290 nM, 30 nM, 3.15 and 7 µM (≈ 2.69 µg/mL).
Take `CC(C)Oc1ccc(-c2ncc(CNc3cc(Cl)nc(Cl)c3)s2)cc1`: in series [1], the half-life at 1 µM came out at 37 min. The IC50 turned out to be 88 nM in the series with Pseudomonas aeruginosa and 29 nM in series [2]. Moreover, the logD in series [4] was found to be 5.62. Besides, in series [3], the solubility kinetic at 5 min amounted to 8 µM (≈ 3.15 µg/mL).
For `FC(F)(F)c1ccc(NCc2cnc(-c3ccc(Oc4ccccc4)cc3)s2)cn1`, in that order: 10 min, 424 nM, 38 nM, 3.42 and 8 µM (≈ 3.42 µg/mL).
For `N#Cc1ccc(NCc2cnc(-c3ccc(Oc4ccccc4)cc3)s2)cn1`, in that order: 38 min, 761 nM, 5 nM, 3.52 and 6 µM (≈ 2.31 µg/mL).
Turning to `N#Cc1ccc(NCc2cnc(-c3ccc(Oc4ccccc4)cc3)s2)nc1`, the half-life at 1 µM in series [1] came to 20 min. Further, the IC50 in the series on Pseudomonas aeruginosa was over 5000 nM; in series [2], 803 nM. In addition, the solubility kinetic at 5 min in series [3] turned out to be 5 µM (≈ 1.92 µg/mL).
`COc1ccc(-c2ncc(CNc3ccnc(C(F)(F)F)c3)s2)cc1`: the IC50 with Pseudomonas aeruginosa came to 450 nM; in series [2], 83 nM.
For the compound `FC(F)(F)c1cc(SCc2cnc(-c3ccc(Oc4ccccc4)cc3)s2)ccn1`, the half-life at 1 µM in series [1] was 11 min. For the same compound, the IC50 in the series on Pseudomonas aeruginosa was 2370 nM; in series [2] it was 111 nM. Also, the log distribution coefficient (logD) in series [4] is 4.03. Besides, the solubility kinetic at 5 min in series [3] worked out at 7 µM (≈ 3.11 µg/mL).

Values taken from ChEMBL document CHEMBL5608201, “Discovery and optimization of thiazole-based quorum sensing inhibitors as potent blockers of Pseudomonas aeruginosa pathogenicity” (Eur J Med Chem, 2024).
